For this assay, the target named is human FAAH (Fatty Acid Amide Hydrolase) (Homo sapiens (Human), UniProt O00519). The assay can be described thus: FAAH inhibition, human FAAH CHO whole cell format. Type of assay: cell-based. From the text: To assist in assay development stable cell lines for human, murine and rat full length FAAH were developed. […] The full length FAAH was subcloned into the mammalian expression vector, pcDEF.neo, using XbaI and EcoRI restriction sites and used for stable cell line generation.
human FAAH (Fatty Acid Amide Hydrolase), sequence (O00519 whole entry): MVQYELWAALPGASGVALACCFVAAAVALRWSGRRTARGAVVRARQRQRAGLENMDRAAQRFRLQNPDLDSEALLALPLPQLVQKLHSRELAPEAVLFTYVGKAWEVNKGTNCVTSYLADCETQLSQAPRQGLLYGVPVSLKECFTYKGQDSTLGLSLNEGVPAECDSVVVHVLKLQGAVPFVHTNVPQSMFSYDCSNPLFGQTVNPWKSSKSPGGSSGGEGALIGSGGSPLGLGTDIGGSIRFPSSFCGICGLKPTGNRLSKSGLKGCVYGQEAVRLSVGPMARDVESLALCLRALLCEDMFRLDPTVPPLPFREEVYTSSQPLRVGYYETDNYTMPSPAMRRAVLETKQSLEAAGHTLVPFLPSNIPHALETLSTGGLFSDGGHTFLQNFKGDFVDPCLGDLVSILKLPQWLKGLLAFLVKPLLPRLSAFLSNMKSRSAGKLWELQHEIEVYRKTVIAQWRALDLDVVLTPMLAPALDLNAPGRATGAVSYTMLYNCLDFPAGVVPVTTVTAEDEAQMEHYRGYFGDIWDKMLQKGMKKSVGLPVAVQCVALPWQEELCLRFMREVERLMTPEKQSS
The full length murine FAAH was subcloned into the mammalian expression vector, pcDEFneo using either EcoRI (murine) or KpnI and EcoRI (rat) restriction sites. Chinese hamster ovary cells (CHO) were transfected following manufacturers protocol (AMAXA). Forty eight hours post transfection, cells were trypsinized and transferred to 96 well plates in Iscove's DMEM media supplemented with 2 mM Glutamine, 10% fetal calf serum, 1 mg/ml geneticin and HT Supplement (0.1 mM sodium hypoxanthine, 0.016 mM thymidine) in order to isolate single clones. […] Following removal of tissue culture media cells were dislodged following addition of Cellstripper (Mediatech, Inc. Manassas, Va.) and transferred to 96 well black clear bottom assay plate, centrifuged at 1,000 rpm for 3 mins and media removed and replaced with assay buffer (50 mM Tris pH8.0, 1 mM EDTA, 0.1% fatty acid free BSA). The reaction was initiated by addition of fluorescent substrate, AMC Arachidonoyl Amide (Cayman Chemical, Ann Arbor, Mich.) to 1 μM and reaction allowed to proceed for 2 hours at room temperature. Release of fluorescence was monitored in a CytoFluor Multiplate Reader.
Assays are performed on either cell lysate or microsome fractions prepared as described or in whole cell format employing either the fluorescent substrate AAMCA (Cayman chemical, Ann Arbor, Mich.,) or ^3H-anandamide ([ETHANOLAMINE-1-3H] American Radiolabeled Chemicals; 1 mCi/ml). […] AAMCA substrate was used to achieve a final concentration of 1 μM and reaction allowed to proceed at room temperature for 1-3 hours. […] Whole cell assay is conducted with cells harvested after rinsing tissue culture flasks three times with Ca^++Mg^++ free PBS, incubating for 10 min in Enzyme free dissociation media and centrifuging for 5 minutes at 1,000 rpm in table top centrifuge. Cells are resuspended in assay buffer at desired cell number in (4×10^4 cells/assay in 96-well format; 1×10^4 cells/assay in 384-well format) and assayed as described.

What is called IC50 is the point on the concentration scale where inhibition reaches its midpoint. The compound `COC(=O)N1CCC(c2nc(C3CCOCC3)oc2Sc2ccc(Cl)cn2)CC1` [Example A7.32, methyl 4-{5-[(5-chloropyridin-2-yl)sulfanyl]-2-(tetrahydro-2H-pyran-4-yl)-1,3-oxazol-4-yl}piperidine-1-carboxylate] came in with an IC50 of 0.142 µM. With `Clc1ccc(Sc2oc(C3CCOCC3)nc2-c2cnc3n2CCC3)cc1` [Example B5.25, 3-{5-[(4-chlorophenyl)sulfanyl]-2-(tetrahydro-2H-pyran-4-yl)-1,3-oxazol-4-yl}-6,7-dihydro-5H-pyrrolo[1,2-a]imidazole], inhibition was half-maximal at 0.205 µM (IC50).

The compound `CN1CCN(c2ccc(-c3nc(C4CCOCC4)oc3Sc3ccc(Cl)cc3)cn2)CC1` [Example B5.27, 1-(5-{5-[(4-chlorophenyl)sulfanyl]-2-(tetrahydro-2H-pyran-4-yl)-1,3-oxazol-4-yl}pyridin-2-yl)-4-methylpiperazine] came in with an IC50 of 0.141 µM. `COc1ccc(Sc2oc(C3CCOCC3)nc2-c2ccc(C(C)(C)O)nc2)cn1` [Example A7.8, 2-(5-{5-{(6-methoxypyridin-3-yl)sulfanyl]-2-(tetrahydro-2H-pyran-4-yl)-1,3-oxazol-4-yl}pyridin-2-yl)propan-2-ol] yielded an IC50 of 1.19 µM.

In turn, `CC(C)(O)c1ccc(-c2nc(C3CCOCC3)oc2Sc2ncc(Cl)cn2)cn1` [Example A7.3, 2-(5-{5-[(5-chloropyrimidin-2-yl)sulfanyl]-2-(tetrahydro-2H-pyran-4-yl)-1,3-oxazol-4-yl}pyridin-2-yl)propan-2-ol] showed an IC50 of 0.852 µM. For the compound `CC(C)(O)c1ccc(-c2nc(C3CCOCC3)oc2Sc2ccccc2Cl)cn1` [Example A7.10, 2-(5-{5-[(2-chlorophenyl)sulfanyl]-2-(tetrahydro-2H-pyran-4-yl)-1,3-oxazol-4-yl}pyridin-2-yl)propan-2-ol], the IC50 was ≥ 10 µM. In the case of `CC(C)(O)c1ccc(-c2nc(C3CCOCC3)oc2Sc2ccc(OC(F)F)cn2)cn1` [Example A7.7, 2-{5-[5-{[5-(difluoromethoxy)pyridin-2-yl]sulfanyl}-2-(tetrahydro-2H-pyran-4-yl)-1,3-oxazol-4-yl]pyridin-2-yl}propan-2-ol], it took 2.21 µM to reach half-maximal inhibition (IC50).

`CC(C)(O)c1ccc(-c2nc(C3CCOCC3)oc2Oc2ccc(Cl)cc2)cn1` [Example A7.12, 2-{5-[5-(4-chlorophenoxy)-2-(tetrahydro-2H-pyran-4-yl)-1,3-oxazol-4-yl]pyridin-2-yl}propan2-ol] returned an IC50 of 0.29 µM. Next, `CCNC(=O)N1CCC(c2nc(C3CCOCC3)oc2Sc2ccc(Cl)cn2)CC1` [Example A7.40, 4-{5-[(5-chloropyridin-2-yl)sulfanyl]-2-(tetrahydro-2H-pyran-4-yl)-1,3-oxazol-4-yl}-N-ethylpiperidine-1-carboxamide]: 9.7 µM. In the case of `C[N+]1(C)CCN(c2ccc(-c3nc(C4CCOCC4)oc3Sc3ccc(Cl)cc3)cn2)CC1` [Example B5.14, 4-(5-{5-[(4-chlorophenyl)sulfanyl]-2-(tetrahydro-2H-pyran-4-yl)-1,3-oxazol-4-yl}pyridin-2-yl)-1,1-dimethylpiperazin-1-ium], the IC50 is ≥ 10 µM. In the case of `CC(C)(O)c1ccc(-c2nc(C3CCOCC3)oc2Sc2cccc(Cl)c2)cn1` [Example A7.9, 2-(5-{5-[(3-chlorophenyl)sulfanyl]-2-(tetrahydro-2H-pyran-4-yl)-1,3-oxazol-4-yl}pyridin-2-yl)propan-2-ol], the IC50 is ≥ 10 µM. `CC(C)(O)c1ccc(-c2nc([C@H]3CC[C@H](C(C)(C)O)CC3)oc2Sc2ccc(Cl)cc2)cn1` [Example B5.38, 2-(5-{5-[(4-chlorophenyl)sulfanyl]-2-[trans-4-(2-hydroxypropan-2-yl)cyclohexyl]-1,3-oxazol-4-yl}pyridin-2-yl)propan-2-ol]: the midpoint of inhibition, the IC50, lay at 0.185 µM.

In the case of `CC(C)(O)c1ccc(-c2nc(C3CCOCC3)oc2Sc2ccc(F)cn2)cn1` [Example A7.5, 2-(5-{5-[(5-fluoropyridin-2-yl)sulfanyl]-2-(tetrahydro-2H-pyran-4-yl)-1,3-oxazol-4-yl}pyridin-2-yl)propan-2-ol], the IC50 was 4.25 µM. As to `COC(=O)[C@H]1CC[C@@H](c2nc(-c3ccc(C(C)(C)O)nc3)c(Sc3ccc(Cl)cc3)o2)CC1` [Example B5.34, methyl cis-4-{5-[(4-chlorophenyl)sulfanyl]-4-[6-(2-hydroxypropan-2-yl)pyridin-3-yl]-1,3-oxazol-2-yl}cyclohexanecarboxylate], it took 0.0142 µM to reach half-maximal inhibition (IC50). For the compound `O=C(c1ccc(-c2nc(C3CCOCC3)oc2Sc2ccc(Cl)cc2)cn1)N1CCOCC1` [Example B5.24, (5-{5-[(4-chlorophenyl)sulfanyl]-2-(tetrahydro-2H-pyran-4-yl)-1,3-oxazol-4-yl}pyridin-2-yl)(morpholin-4-yl)methanone], the IC50 was ≥ 10 µM.

Consider `CC(C)(O)c1ccc(-c2nc(C3CCOCC3)oc2Sc2ccc(Cl)cn2)cn1` [Example A7.1, 2-(5-{5-[(5-chloropyridin-2-yl)sulfanyl]-2-(tetrahydro-2H-pyran-4-yl)-1,3-oxazol-4-yl}pyridin-2-yl)propan-2-ol], for which the IC50 is 0.314 µM. `CC(O)(CO)c1ccc(-c2nc(C3CCOCC3)oc2Sc2ccc(Cl)cc2)cn1` (stereo not shown) [Example B5.37, 2-(5-{5-[(4-chlorophenyl)sulfanyl]-2-(tetrahydro-2H-pyran-4-yl)-1,3-oxazol-4-yl}pyridin-2-yl)propane-1,2-diol] gave an IC50 of 0.308 µM. Turning to `CC(C)(O)c1ccc(-c2nc(C3CCOCC3)oc2Cc2ccc(Cl)cc2)cn1` [Example A7.11, 2-{5-[5-(4-chlorobenzyl)-2-(tetrahydro-2H-pyran-4-yl)-1,3-oxazol-4-yl]pyridin-2-yl}propan-2-ol], half-maximal inhibition (IC50) required 0.701 µM. `CC(c1ccc(-c2nc(C3CCOCC3)oc2Sc2ccc(Cl)cc2)cc1)N1CCOCC1` (stereo not shown) [Example B5.17, 4-[1-(4-{5-[(4-chlorophenyl)sulfanyl]-2-(tetrahydro-2H-pyran-4-yl)-1,3-oxazol-4-yl}phenyl)ethyl]morpholine] yielded an IC50 of 1.53 µM.

As to `Clc1ccc(Sc2oc(C3CCOCC3)nc2-c2ccc(N3CCNCC3)cc2)cc1` [Example B5.21, 1-(4-{5-[(4-chlorophenyl)sulfanyl]-2-(tetrahydro-2H-pyran-4-yl)-1,3-oxazol-4-yl}phenyl)piperazine], it took 0.707 µM to reach half-maximal inhibition (IC50).

`O=C(c1ccc(-c2nc(C3CCOCC3)oc2Sc2ccc(Cl)cc2)cc1)N1CCC(O)CC1` [Example B5.19, (4-{5-[(4-chlorophenyl)sulfanyl]-2-(tetrahydro-2H-pyran-4-yl)-1,3-oxazol-4-yl}phenyl)(4-hydroxypiperidin-1-yl)methanone] displayed an IC50 of 2.67 µM. `CCNC(=O)[C@H]1CC[C@H](c2nc(-c3ccc(C(C)(C)O)nc3)c(Sc3ccc(Cl)cc3)o2)CC1` [Example B5.39, trans-4-{5-[(4-chlorophenyl)sulfanyl]-4-[6-(2-hydroxypropan-2-yl)pyridin-3-yl]-1,3-oxazol-2-yl}-N-ethylcyclohexanecarboxamide] displayed an IC50 of 0.0262 µM. Next, `CC(C)OC(=O)N1CCC(c2nc(C3CCOCC3)oc2Sc2ccc(Cl)cn2)CC1` [Example A7.37, propan-2-yl 4-{5-[(5-chloropyridin-2-yl)sulfanyl]-2-(tetrahydro-2H-pyran-4-yl)-1,3-oxazol-4-yl}piperidine-1-carboxylate]: 1.92 µM. As for `Cc1nnc(-c2cccc(-c3nc(C4CCOCC4)oc3Sc3ccc(Cl)cc3)c2)o1` [Example B5.29, 2-(3-{5-[(4-chlorophenyl)sulfanyl]-2-(tetrahydro-2H-pyran-4-yl)-1,3-oxazol-4-yl}phenyl)-5-methyl-1,3,4-oxadiazole], the IC50 was ≥ 10 µM. In the case of `CC(C)COC(=O)N1CCC(c2nc(C3CCOCC3)oc2Sc2ccc(Cl)cn2)CC1` [Example A7.36, 2-methylpropyl 4-{5-[(5-chloropyridin-2-yl)sulfanyl]-2-(tetrahydro-2H-pyran-4-yl)-1,3-oxazol-4-yl}piperidine-1-carboxylate], the IC50 is ≥ 10 µM.

Turning to `CC(C)(O)c1ccc(-c2nc([C@H]3CC[C@@H](CO)CC3)oc2Sc2ccc(Cl)cc2)cn1` [Example B5.36, 2-(5-{5-[(4-chlorophenyl)sulfanyl]-2-[cis-4-(hydroxymethyl)cyclohexyl]-1,3-oxazol-4-yl}pyridin-2-yl)propan-2-ol], the IC50 stood at 0.0638 µM.

As to `CCOC(=O)N1CCC(c2nc(C3CCOCC3)oc2Sc2ccc(Cl)cn2)CC1` [Example A7.34, ethyl 4-{5-[(5-chloropyridin-2-yl)sulfanyl}-2-(tetrahydro-2H-pyran-4-yl)-1,3-oxazol-4-yl}piperidine-1-carboxylate], the IC50 was 0.15 µM. For the compound `CC(C)(O)c1ccc(-c2nc(C3CCOCC3)oc2Sc2ccc(C3CC3)cn2)cn1` [Example A7.6, 2-(5-{5-{(5-cyclopropylpyridin-2-yl)sulfanyl]-2-(tetrahydro-2H-pyran-4-yl)-1,3-oxazol-4-yl}pyridin-2-yl)propan-2-ol], the IC50 was determined as 4.14 µM.

The values are drawn from US9193697B2, “Oxazole derivatives useful as modulators of FAAH” (MERCK SHARP & DOHME CORP., priority 2010, dated 2015).
